Measured values from ChEMBL document CHEMBL1201862, “PubChem BioAssay data set” (2004).
Activity calls are given as the source filed them.

What was measured:
cells = format: functional
[1] = Luminescence Cell-Based Dose Retest to Confirm Inhibitors of Cancer Stem Cells. [Related pubchem assays (depositor defined):AID2717, AID2721]; format: functional; conditions: Homo sapiens
Cytochrome P450 1A2 = target: T1, Cytochrome P450 1A2 (Homo sapiens, UniProt P05177);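 further: PubChem cytochrome P450 panel assay, CYP1A2 panel member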
T1 sequence (P05177 whole entry): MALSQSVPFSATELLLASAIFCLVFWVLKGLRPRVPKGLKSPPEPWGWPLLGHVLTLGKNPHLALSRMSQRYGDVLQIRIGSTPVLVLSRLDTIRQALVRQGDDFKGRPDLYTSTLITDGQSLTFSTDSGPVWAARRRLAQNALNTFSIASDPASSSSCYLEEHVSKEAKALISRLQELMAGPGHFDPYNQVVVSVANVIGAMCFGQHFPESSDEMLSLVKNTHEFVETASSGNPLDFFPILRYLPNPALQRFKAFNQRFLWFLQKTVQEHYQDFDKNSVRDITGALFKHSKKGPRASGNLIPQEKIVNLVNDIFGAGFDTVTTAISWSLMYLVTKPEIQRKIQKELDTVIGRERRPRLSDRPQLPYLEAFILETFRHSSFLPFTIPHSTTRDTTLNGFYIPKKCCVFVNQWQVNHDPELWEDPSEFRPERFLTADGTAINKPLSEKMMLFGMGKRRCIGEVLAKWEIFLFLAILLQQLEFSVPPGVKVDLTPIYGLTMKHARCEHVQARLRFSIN

Cytochrome P450 2C19 = Cytochrome P450 2C19 (Homo sapiens, UniProt P33261); assay: Cytochrome panel assay with activity outcomes. Panel member name: p450-cyp2c19 Compounds with AC50 equal or less than 10 uM are considered active; format: functional; conditions: read-out: AC50
[2] = target: T2, Heat shock factor protein 1 (Mus musculus, UniProt P38532); assay: enhancement of HSF1-driven luciferase signal – cell-based, NIH3T3, luminescence, dose retest, confirmation (AID 435004); format: functional;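 further: stress induced by proteasome inhibitor MG132 added 30 min after compound; luciferase reporter driven by HSF1 response element in NIH3T3 cells; actives raise luminescence as potentiators of the MG132 stress response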
T2 sequence (P38532 whole entry): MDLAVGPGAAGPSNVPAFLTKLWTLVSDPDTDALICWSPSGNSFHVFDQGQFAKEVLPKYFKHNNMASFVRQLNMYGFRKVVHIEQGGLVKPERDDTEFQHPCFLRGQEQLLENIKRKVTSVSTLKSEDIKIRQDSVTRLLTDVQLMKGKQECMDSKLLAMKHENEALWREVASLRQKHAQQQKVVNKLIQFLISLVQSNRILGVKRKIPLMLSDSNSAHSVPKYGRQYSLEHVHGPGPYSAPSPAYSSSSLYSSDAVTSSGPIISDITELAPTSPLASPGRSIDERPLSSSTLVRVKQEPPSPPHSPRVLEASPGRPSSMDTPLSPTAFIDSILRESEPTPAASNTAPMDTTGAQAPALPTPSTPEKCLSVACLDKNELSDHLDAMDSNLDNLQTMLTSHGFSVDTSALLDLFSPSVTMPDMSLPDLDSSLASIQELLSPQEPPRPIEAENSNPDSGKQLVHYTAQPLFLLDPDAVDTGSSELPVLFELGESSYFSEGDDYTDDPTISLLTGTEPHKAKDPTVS

[3] = target: T3, Zinc finger protein mex-5 (Caenorhabditis elegans, UniProt Q9XUB2); assay: potency of MEX-5 RNA-binding blockers – biochemical, C. elegans, fluorescence polarization, dose response (AID 1960)
T3 sequence (Q9XUB2 whole entry): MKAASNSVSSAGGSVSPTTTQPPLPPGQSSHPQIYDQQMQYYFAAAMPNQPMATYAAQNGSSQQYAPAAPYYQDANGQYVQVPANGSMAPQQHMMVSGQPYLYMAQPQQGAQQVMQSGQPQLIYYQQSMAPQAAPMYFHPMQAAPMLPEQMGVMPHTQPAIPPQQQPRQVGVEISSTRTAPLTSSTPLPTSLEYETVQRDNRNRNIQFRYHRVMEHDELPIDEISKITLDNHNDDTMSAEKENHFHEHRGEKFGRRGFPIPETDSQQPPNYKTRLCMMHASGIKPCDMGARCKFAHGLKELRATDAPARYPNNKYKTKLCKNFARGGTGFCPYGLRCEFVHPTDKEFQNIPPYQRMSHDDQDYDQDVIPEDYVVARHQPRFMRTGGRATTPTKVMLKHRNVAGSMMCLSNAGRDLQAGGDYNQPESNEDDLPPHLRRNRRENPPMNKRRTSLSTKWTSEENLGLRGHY

[4] = target: T4, RNA-binding protein pos-1 (Caenorhabditis elegans, UniProt G5EF15); assay: disruptors of C. elegans POS-1 RNA interaction – biochemical, fluorescence polarization, dose response (AID 1964);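 further: purified POS-1 fused to maltose binding protein made in E. coli; potency of compounds blocking POS-1 binding to fluorescent RNA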
T4 sequence (G5EF15 whole entry): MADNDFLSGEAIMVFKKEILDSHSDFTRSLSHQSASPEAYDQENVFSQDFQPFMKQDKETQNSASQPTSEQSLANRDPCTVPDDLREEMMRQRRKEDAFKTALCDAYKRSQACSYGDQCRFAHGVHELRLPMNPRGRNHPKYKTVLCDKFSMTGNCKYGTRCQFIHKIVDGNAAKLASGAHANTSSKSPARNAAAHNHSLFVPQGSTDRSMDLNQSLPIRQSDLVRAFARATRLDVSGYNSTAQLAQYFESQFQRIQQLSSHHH

Cytochrome P450 3A4 = Cytochrome P450 3A4 (Homo sapiens, UniProt P08684);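 further: CYP3A4 tested as one member of a cytochrome P450 panel screen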
Cytochrome P450 2D6 = Cytochrome P450 2D6 (Homo sapiens, UniProt P10635);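 further: CYP2D6 member of a cytochrome P450 panel assay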
Cytochrome P450 2C9 = Cytochrome P450 2C9 (Homo sapiens, UniProt P11712)
Sequence of Cytochrome P450 2C9 (P11712 whole entry): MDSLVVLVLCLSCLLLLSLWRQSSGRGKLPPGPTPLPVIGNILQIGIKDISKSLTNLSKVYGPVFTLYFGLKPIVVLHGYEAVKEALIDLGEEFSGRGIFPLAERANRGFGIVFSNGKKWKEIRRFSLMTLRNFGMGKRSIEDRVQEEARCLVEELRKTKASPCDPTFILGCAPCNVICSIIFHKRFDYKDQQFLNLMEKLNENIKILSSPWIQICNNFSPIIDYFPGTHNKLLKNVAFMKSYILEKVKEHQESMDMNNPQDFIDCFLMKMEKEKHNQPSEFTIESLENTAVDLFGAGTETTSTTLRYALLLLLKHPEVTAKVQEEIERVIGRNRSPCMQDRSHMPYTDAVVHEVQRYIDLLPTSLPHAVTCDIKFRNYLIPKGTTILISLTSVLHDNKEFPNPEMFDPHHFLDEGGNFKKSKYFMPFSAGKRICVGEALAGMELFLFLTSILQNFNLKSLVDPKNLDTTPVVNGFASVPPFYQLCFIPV

Sequence of Cytochrome P450 2C19 (P33261 whole entry): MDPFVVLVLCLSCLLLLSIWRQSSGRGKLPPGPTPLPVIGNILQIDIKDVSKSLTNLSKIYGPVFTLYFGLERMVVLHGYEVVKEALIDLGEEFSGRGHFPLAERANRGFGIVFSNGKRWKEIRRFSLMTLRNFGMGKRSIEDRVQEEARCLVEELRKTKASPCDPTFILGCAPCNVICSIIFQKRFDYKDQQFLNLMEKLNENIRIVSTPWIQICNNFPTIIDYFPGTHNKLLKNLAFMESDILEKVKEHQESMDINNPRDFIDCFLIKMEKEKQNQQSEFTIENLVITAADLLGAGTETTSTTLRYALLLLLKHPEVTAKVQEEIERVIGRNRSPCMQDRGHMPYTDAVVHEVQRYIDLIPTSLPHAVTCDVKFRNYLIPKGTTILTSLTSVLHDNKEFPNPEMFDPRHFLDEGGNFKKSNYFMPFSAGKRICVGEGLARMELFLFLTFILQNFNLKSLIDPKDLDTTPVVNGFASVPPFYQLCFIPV
Sequence of Cytochrome P450 2D6 (P10635 whole entry): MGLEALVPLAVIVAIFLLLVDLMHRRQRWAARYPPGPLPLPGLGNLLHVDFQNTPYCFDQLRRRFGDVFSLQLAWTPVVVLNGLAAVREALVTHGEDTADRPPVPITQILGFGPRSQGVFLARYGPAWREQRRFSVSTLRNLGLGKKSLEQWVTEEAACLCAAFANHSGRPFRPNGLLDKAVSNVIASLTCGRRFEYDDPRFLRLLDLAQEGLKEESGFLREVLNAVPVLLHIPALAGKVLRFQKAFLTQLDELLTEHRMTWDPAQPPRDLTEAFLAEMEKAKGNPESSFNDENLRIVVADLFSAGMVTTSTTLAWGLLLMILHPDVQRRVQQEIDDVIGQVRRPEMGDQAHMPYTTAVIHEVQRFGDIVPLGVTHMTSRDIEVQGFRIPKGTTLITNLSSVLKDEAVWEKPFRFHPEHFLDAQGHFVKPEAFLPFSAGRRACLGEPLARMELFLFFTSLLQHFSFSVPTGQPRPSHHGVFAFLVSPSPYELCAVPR
Sequence of Cytochrome P450 3A4 (P08684 whole entry): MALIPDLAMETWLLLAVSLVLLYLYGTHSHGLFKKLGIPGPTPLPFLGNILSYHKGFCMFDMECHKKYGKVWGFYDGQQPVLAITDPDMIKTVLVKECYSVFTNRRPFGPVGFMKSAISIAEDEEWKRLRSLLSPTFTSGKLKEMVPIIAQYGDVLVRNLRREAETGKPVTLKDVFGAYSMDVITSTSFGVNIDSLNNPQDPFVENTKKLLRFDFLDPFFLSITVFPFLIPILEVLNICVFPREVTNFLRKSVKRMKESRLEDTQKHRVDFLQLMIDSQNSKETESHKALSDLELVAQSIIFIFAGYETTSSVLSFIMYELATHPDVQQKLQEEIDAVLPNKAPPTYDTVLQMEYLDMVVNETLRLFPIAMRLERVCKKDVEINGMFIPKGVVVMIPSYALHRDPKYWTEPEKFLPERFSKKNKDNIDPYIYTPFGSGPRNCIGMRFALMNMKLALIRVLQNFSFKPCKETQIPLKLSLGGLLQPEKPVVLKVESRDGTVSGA

For `O=C(Oc1cccc2cccnc12)c1cccc([N+](=O)[O-])c1`, the IC50 (cells) was 10.9 µM (active).

With `CN(C)CCOc1ccc(C(C)(C)c2ccccc2)cc1` the AC50 [1] was 1.96 µM (active).

In the case of `O=C(O)c1ccccc1C(=O)NNc1ccc(Cl)cc1`, the AC50 [1] is reported as 0.983 µM (active), the AC50 (Cytochrome P450 1A2) is reported as 6.31 µM (inconclusive) and the AC50 (Cytochrome P450 2C19) is reported as 5.01 µM (inconclusive).

With `Cc1cc(C(=O)N2CCN(c3ccccn3)CC2)c(C)o1` the EC50 [2] was > 260 µM (inactive).

In the case of `CN(C)CCNc1nc2sc3c(c2c(=O)n1-c1ccccc1)CCCCC3`, the AC50 [1] is reported as 4.27 µM (active).

For `CC(=O)Nc1ccc(/C=C/C(=O)c2ccc3c(c2)OCCO3)cc1`, the EC50 [3] was > 300 µM (not active) and the EC50 [4] was > 300 µM (not active).

With `CC(C)CCNC1c2ccccc2C(=O)N1Cc1ccccc1` (stereo not drawn) the EC50 [2] was > 260 µM (inactive).

With `COc1ccc(CNc2ccnc(-c3ccccc3CN(C)C)n2)c(OC)c1` the AC50 (Cytochrome P450 1A2) was 15.8 µM (inconclusive).

In the case of `CCNc1ncc2nc(-c3cccs3)c(=O)n(Cc3cccc(OC)c3)c2n1`, the AC50 (Cytochrome P450 1A2) is reported as 0.126 µM (inconclusive) and the AC50 (Cytochrome P450 3A4) is reported as 12.6 µM (inconclusive).

With `CN1CCN(c2c(F)cc3c(=O)c(C(=O)O)cn4c3c2SCC4)CC1` the IC50 (cells) was 8.05 µM (active).

In the case of `Cc1cccc2cc(CN(Cc3ccccc3)C(=O)c3cccc(F)c3)c(Cl)nc12`, the AC50 (Cytochrome P450 1A2) is reported as 11.2 µM (inconclusive) and the AC50 (Cytochrome P450 2D6) is reported as 15.8 µM (inconclusive).

In the case of `CCN(CC)CCN/C=C1/C(=O)NC(=O)N(Cc2ccccc2)C1=O`, the EC50 [3] is reported as > 300 µM (not active) and the EC50 [4] is reported as > 300 µM (not active).

With `O=C(COC(=O)c1cc(Cl)ccc1O)c1ccc2c(c1)OCO2` the IC50 (cells) was 12.1 µM (active).

With `COC(=O)CN(C#N)c1nc(SC)nc(N(C)C)n1` the IC50 (cells) was 18.9 µM (active).

With `Cc1ccccc1OCCNC=C1C(=O)N(C)C(=O)N(C)C1=O` the AC50 (Cytochrome P450 2C9) was 0.0126 µM (inconclusive) and the AC50 (Cytochrome P450 3A4) was 20 µM (inconclusive).

In the case of `COc1ccccc1NC(=O)C1=C(C)Nc2nnnn2C1c1cccc(Br)c1` (stereo not drawn), the AC50 (Cytochrome P450 1A2) is reported as 31.6 µM (inconclusive) and the AC50 (Cytochrome P450 2D6) is reported as 15.8 µM (inconclusive).

With `Cc1ccc2cc3c(nc2c1)OCC3` the IC50 (cells) was > 50 µM (active).

For `Cc1cccc(CN2CCN([C@@H](c3ccccc3)c3ccc(Cl)cc3)CC2)c1`, the AC50 (Cytochrome P450 1A2) was 10 µM (inconclusive) and the AC50 (Cytochrome P450 2C19) was 2.51 µM (inconclusive).

For `CC1=CC(C)(C)N(C)C(=O)N1c1ccc(Cl)cc1`, the AC50 (Cytochrome P450 2C9) was 31.6 µM (inconclusive) and the AC50 (Cytochrome P450 1A2) was 17.8 µM (inconclusive).

In the case of `C[C@@H](Cc1ccc(Cl)cc1Cl)NO`, the AC50 (Cytochrome P450 1A2) is reported as 0.251 µM (active).

In the case of `CCCc1cc(-c2nc(-c3ccc(C)cc3)cs2)ccn1`, the AC50 [1] is reported as 3.62 µM (active).

For `O=C(NCCN1CCOCC1)c1cccn2c(=O)c3c4c(sc3nc12)CCCC4`, the EC50 [3] was > 300 µM (not active) and the EC50 [4] was > 300 µM (not active).

In the case of `CCOC(=O)CSCC(NC(=O)OC(C)(C)C)C(=O)OCC` (stereo not drawn), the AC50 (Cytochrome P450 2C9) is reported as 14.1 µM (inconclusive) and the AC50 (Cytochrome P450 1A2) is reported as 25.1 µM (inconclusive).

With `CCOc1ccc(C(=O)NC2CC3CCCC(C2)N3CC(C)C)cc1` (stereo not drawn) the EC50 [2] was > 260 µM (inactive).

In the case of `Cc1ccc(C(=O)Cn2nnc3c(sc4nc5c(c(-c6ccccc6)c43)CCC5)c2=O)cc1`, the AC50 [1] is reported as 0.462 µM (active) and the AC50 (Cytochrome P450 2C19) is reported as 25.1 µM (inconclusive).
